# From ChEMBL document CHEMBL4706663, “Large-scale isolation and antitumor mechanism evaluation of compounds from the traditional Chinese medicine Cordyceps Militaris” (Eur J Med Chem, 2021)
# The source made the active and inactive calls. No cut-off for these calls is given here.
# Assays:
# [1] = Antitumor activity against […] cancer cells xenografted in BALB/c mouse assessed as lung weight at 27 mg/kg, ig administered every day for 10 days measured post last dose (reference value: 0.13 +/- 0.03 g); assay type: functional, Lewis lung carcinoma; details: time 10 day
# [2] = molecular target: Glyceraldehyde-3-phosphate dehydrogenase (Homo sapiens) (UniProt P04406); assay: Binding affinity to GAPDH in human A549 cells by LC-MS/MS analysis; assay type: cell-based
# [3] = Antitumor activity against […] cells xenografted in KM mouse assessed as liver weight at 27 mg/kg, ig administered every day for 10 days measured post last dose (reference value: 1.57 +/- 0.3 g); assay type: functional; details: time 10 day
# [4] = Toxicity in […] lung cancer cells xenografted BALB/c mouse assessed as net weight at 80 mg/kg, ig administered every day for 10 days (reference value: 1.16 +/- 1.55 g); assay type: organism-based; details: in vivo, po, 240 h, time 10 day
# [5] = Antitumor activity against […] cancer cells xenografted in BALB/c mouse assessed as tumor weight at 80 mg/kg, ig administered every day for 10 days (reference value: 1.68 +/- 0.78 g); assay type: functional, Lewis lung carcinoma; details: time 10 day
# [6] = Antitumor activity against […] cancer cells xenografted in BALB/c mouse assessed as lung weight at 80 mg/kg, ig administered every day for 10 days measured post last dose (reference value: 0.13 +/- 0.03 g); assay type: functional, Lewis lung carcinoma; details: time 10 day
# [7] = molecular target: Tropomyosin alpha-1 chain (Homo sapiens) (UniProt P09493); assay: Binding affinity to tropomyosin alpha-1 chain isoform 1 in human A549 cells by LC-MS/MS analysis; assay type: cell-based
# [8] = Antitumor activity against […] cells xenografted in KM mouse assessed as tumor weight at 80 mg/kg, ig administered every day for 10 days (reference value: 0.55 +/- 0.57 g); assay type: functional; details: time 10 day
# [9] = molecular target: Heat shock 70 kDa protein 1A/1B (Homo sapiens) (UniProt P0DMV8+P0DMV9); assay: Binding affinity to heat shock 70 kDa protein 1A/1B in human A549 cells by LC-MS/MS analysis; assay type: cell-based
# [10] = Toxicity in […] lung cancer cells xenografted BALB/c mouse assessed as survival rate at 240 mg/kg, ig administered every day for 10 days (reference value: 100%); assay type: organism-based; details: in vivo, po, time 10 day
# Glyceraldehyde-3-phosphate dehydrogenase (Homo sapiens), sequence (P04406 2-335 limits assumed): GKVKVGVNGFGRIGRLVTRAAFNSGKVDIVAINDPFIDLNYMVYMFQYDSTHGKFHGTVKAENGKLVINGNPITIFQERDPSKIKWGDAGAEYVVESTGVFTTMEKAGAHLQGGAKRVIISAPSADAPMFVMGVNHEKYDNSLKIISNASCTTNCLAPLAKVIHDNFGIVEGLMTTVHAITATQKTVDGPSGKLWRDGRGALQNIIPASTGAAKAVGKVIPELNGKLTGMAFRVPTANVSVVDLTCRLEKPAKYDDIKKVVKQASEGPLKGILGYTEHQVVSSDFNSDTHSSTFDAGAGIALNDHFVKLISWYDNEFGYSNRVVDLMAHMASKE
# Tropomyosin alpha-1 chain (Homo sapiens), sequence (P09493 whole entry, canonical isoform): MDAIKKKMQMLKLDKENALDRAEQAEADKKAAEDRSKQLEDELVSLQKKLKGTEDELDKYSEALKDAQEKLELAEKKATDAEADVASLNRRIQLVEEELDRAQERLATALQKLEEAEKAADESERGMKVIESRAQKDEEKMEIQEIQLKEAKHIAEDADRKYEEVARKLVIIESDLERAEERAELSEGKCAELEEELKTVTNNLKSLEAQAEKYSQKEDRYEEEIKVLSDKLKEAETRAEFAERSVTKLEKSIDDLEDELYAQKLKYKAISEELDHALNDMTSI
# Heat shock 70 kDa protein 1A/1B (Homo sapiens), sequence (P0DMV8 whole entry, looked up): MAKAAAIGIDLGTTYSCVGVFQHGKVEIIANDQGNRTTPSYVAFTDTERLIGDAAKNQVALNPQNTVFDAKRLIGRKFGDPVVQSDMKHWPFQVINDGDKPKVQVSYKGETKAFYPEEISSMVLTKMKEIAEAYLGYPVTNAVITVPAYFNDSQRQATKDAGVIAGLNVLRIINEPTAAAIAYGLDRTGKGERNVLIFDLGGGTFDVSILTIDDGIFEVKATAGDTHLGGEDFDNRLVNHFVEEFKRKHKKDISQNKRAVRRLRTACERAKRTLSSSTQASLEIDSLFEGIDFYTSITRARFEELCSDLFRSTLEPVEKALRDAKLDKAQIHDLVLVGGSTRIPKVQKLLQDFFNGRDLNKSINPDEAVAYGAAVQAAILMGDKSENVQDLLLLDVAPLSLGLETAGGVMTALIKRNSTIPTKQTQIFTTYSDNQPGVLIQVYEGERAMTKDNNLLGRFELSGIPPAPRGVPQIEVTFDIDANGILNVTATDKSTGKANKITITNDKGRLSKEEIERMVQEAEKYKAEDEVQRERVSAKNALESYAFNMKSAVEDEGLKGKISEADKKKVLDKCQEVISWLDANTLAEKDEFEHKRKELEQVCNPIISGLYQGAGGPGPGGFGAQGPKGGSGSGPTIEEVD
# Heat shock 70 kDa protein 1A/1B (Homo sapiens), sequence (P0DMV9 whole entry, looked up): as the sequence (P0DMV8 whole entry, looked up) above
compound,measurement,setting,value
CC(C)[C@@H](C)/C=C/[C@@H](C)[C@H]1CC[C@H]2C3=CC=C4C[C@@H](O)CC[C@]4(C)[C@H]3CC[C@]12C [ERGOSTEROL],Activity,[1],0.12 g
same,Activity,[2],Active
same,Activity,[3],1.67 g
same,Activity,[4],-0.95 g
same,Activity,[5],1.21 g
same,Activity,[6],0.12 g
same,Activity,[7],Active
same,Activity,[8],0.32 g
same,Activity,[9],Active
same,survival at 240 h,[10],100%
